# Measurements as given in ChEMBL document CHEMBL2311450, “Synthesis and antibacterial evaluation of novel 11,4″-disubstituted azithromycin analogs with greatly improved activity against erythromycin-resistant bacteria” (2013).
# Key:
# Streptococcus pyogenes [1] = test: Antibacterial activity against erythromycin-resistant Streptococcus pyogenes RE clinical isolate by broth microdilution method; type: functional
# Streptococcus pneumoniae [2] = test: Antibacterial activity against erythromycin-resistant Streptococcus pneumoniae A22072 expressing mef gene by broth microdilution method; type: functional
# Streptococcus pneumoniae [3] = test: Antibacterial activity against erythromycin-susceptible Streptococcus pneumoniae ATCC 49619 by broth microdilution method; type: functional
# Streptococcus pneumoniae [4] = test: Antibacterial activity against erythromycin-resistant Streptococcus pneumoniae AB11 expressing erm and mef genes by broth microdilution method; type: functional
# Streptococcus pneumoniae [5] = test: Ratio of azithromycin MIC to compound MIC for erythromycin-resistant Streptococcus pneumoniae AB11 expressing erm and mef genes; type: functional
# Streptococcus pneumoniae [6] = test: Ratio of azithromycin MIC to compound MIC for erythromycin-resistant Streptococcus pneumoniae B1; type: functional
# Salmonella typhimurium [7] = test: Antibacterial activity against Salmonella typhimurium TA102 by broth microdilution method; type: functional, Salmonella enterica subsp. enterica serovar Typhimurium; conditions: Salmonella enterica
# Staphylococcus aureus [8] = test: Antibacterial activity against erythromycin-susceptible Staphylococcus aureus ATCC 25923 by broth microdilution method; type: functional
# Staphylococcus aureus [9] = test: Antibacterial activity against methicillin-susceptible Staphylococcus aureus ATCC 29213 by broth microdilution method; type: functional
# Salmonella typhimurium [10] = test: Antibacterial activity against Salmonella typhimurium TA98 by broth microdilution method; type: functional, Salmonella enterica subsp. enterica serovar Typhimurium; conditions: Salmonella enterica
# Streptococcus pneumoniae [11] = test: Antibacterial activity against erythromycin-resistant Streptococcus pneumoniae B1 expressing erm gene by broth microdilution method; type: functional
# Streptococcus pyogenes [12] = test: Antibacterial activity against erythromycin-susceptible Streptococcus pyogenes by broth microdilution method; type: functional
# Staphylococcus aureus [13] = test: Antibacterial activity against penicillin-resistant Staphylococcus aureus clinical isolate by broth microdilution method; type: functional
# Streptococcus pneumoniae [14] = test: Ratio of azithromycin MIC to compound MIC for erythromycin-resistant Streptococcus pneumoniae A22072 expressing mef gene; type: functional
Structure (SMILES),MIC (Streptococcus pyogenes [1]),MIC (Streptococcus pneumoniae [2]),MIC (Streptococcus pneumoniae [3]),MIC (Streptococcus pneumoniae [4]),Ratio (Streptococcus pneumoniae [5]),Ratio (Streptococcus pneumoniae [6]),MIC (Salmonella typhimurium [7]),MIC (Staphylococcus aureus [8]),MIC (Staphylococcus aureus [9]),MIC (Salmonella typhimurium [10]),MIC (Streptococcus pneumoniae [11]),MIC (Streptococcus pyogenes [12]),MIC (Staphylococcus aureus [13]),Ratio (Streptococcus pneumoniae [14])
CC[C@H]1OC(=O)[C@H](C)[C@@H](O[C@H]2C[C@@](C)(OC)[C@@H](OC(=O)NCCCCNC(=O)c3cc([N+](=O)[O-])cc([N+](=O)[O-])c3)[C@H](C)O2)[C@H](C)[C@@H](O[C@@H]2O[C@H](C)C[C@H](N(C)C)[C@H]2O)[C@](C)(O)C[C@@H](C)CN(C)[C@H](C)[C@@H](OC(=O)NCc2ccc(F)c(F)c2)[C@]1(C)O,16 µg/mL,0.03 µg/mL,0.03 µg/mL,2 µg/mL,128,512,0.5 µg/mL,0.25 µg/mL,4 µg/mL,1 µg/mL,0.25 µg/mL,2 µg/mL,4 µg/mL,133
CC[C@H]1OC(=O)[C@H](C)[C@@H](O[C@H]2C[C@@](C)(OC)[C@@H](OC(=O)NCCCCNC(=O)c3cc([N+](=O)[O-])cc([N+](=O)[O-])c3)[C@H](C)O2)[C@H](C)[C@@H](O[C@@H]2O[C@H](C)C[C@H](N(C)C)[C@H]2O)[C@](C)(O)C[C@@H](C)CN(C)[C@H](C)[C@@H](OC(=O)NCCc2ccc(OC)cc2)[C@]1(C)O,16 µg/mL,0.03 µg/mL,0.03 µg/mL,2 µg/mL,128,512,0.5 µg/mL,0.25 µg/mL,4 µg/mL,1 µg/mL,0.25 µg/mL,1 µg/mL,4 µg/mL,133
CC[C@H]1OC(=O)[C@H](C)[C@@H](O[C@H]2C[C@@](C)(OC)[C@@H](OC(=O)NCCCCNC(=O)c3cc([N+](=O)[O-])cc([N+](=O)[O-])c3)[C@H](C)O2)[C@H](C)[C@@H](O[C@@H]2O[C@H](C)C[C@H](N(C)C)[C@H]2O)[C@](C)(O)C[C@@H](C)CN(C)[C@H](C)[C@@H](OC(=O)NCCc2ccccc2Cl)[C@]1(C)O,16 µg/mL,0.03 µg/mL,0.03 µg/mL,2 µg/mL,128,512,0.25 µg/mL,0.12 µg/mL,4 µg/mL,1 µg/mL,0.25 µg/mL,1 µg/mL,2 µg/mL,133
CC[C@H]1OC(=O)[C@H](C)[C@@H](O[C@H]2C[C@@](C)(OC)[C@@H](OC(=O)NCCNC(=O)c3ccc(C)cc3)[C@H](C)O2)[C@H](C)[C@@H](O[C@@H]2O[C@H](C)C[C@H](N(C)C)[C@H]2O)[C@](C)(O)C[C@@H](C)CN(C)[C@H](C)[C@@H](OC(=O)NCCc2ccccc2)[C@]1(C)O,64 µg/mL,0.12 µg/mL,0.06 µg/mL,8 µg/mL,–,–,2 µg/mL,1 µg/mL,2 µg/mL,2 µg/mL,2 µg/mL,8 µg/mL,8 µg/mL,–
CC[C@H]1OC(=O)[C@H](C)[C@@H](O[C@H]2C[C@@](C)(OC)[C@@H](OC(=O)NCCCCNC(=O)c3ccc(OC)cc3)[C@H](C)O2)[C@H](C)[C@@H](O[C@@H]2O[C@H](C)C[C@H](N(C)C)[C@H]2O)[C@](C)(O)C[C@@H](C)CN(C)[C@H](C)[C@@H](OC(=O)NCc2ccc(OC)cc2)[C@]1(C)O,64 µg/mL,0.5 µg/mL,0.12 µg/mL,16 µg/mL,–,–,2 µg/mL,1 µg/mL,4 µg/mL,16 µg/mL,2 µg/mL,32 µg/mL,4 µg/mL,–
CC[C@H]1OC(=O)[C@H](C)[C@@H](O[C@H]2C[C@@](C)(OC)[C@@H](OC(=O)NCCCCNC(=O)c3ccc(OC)cc3)[C@H](C)O2)[C@H](C)[C@@H](O[C@@H]2O[C@H](C)C[C@H](N(C)C)[C@H]2O)[C@](C)(O)C[C@@H](C)CN(C)[C@H](C)[C@@H](OC(=O)NCCc2ccccc2)[C@]1(C)O,64 µg/mL,0.25 µg/mL,0.06 µg/mL,4 µg/mL,–,–,0.5 µg/mL,1 µg/mL,0.5 µg/mL,4 µg/mL,1 µg/mL,16 µg/mL,4 µg/mL,–
